The values below come from PMC5551389 (Nature, 2016).

For series [1], the system named is HIV-1. As to the kind of experiment: microbe, parasite or virus in culture. The format is cell-based, human immunodeficiency virus type 1.
The test system of series [2] is RSV A2. Nature of the series: microbe, parasite or virus in culture. It counts as cell-based. The note with it: human respiratory syncytial virus.
The test system of series [3] is CHIV. Nature of the series: microbe, parasite or virus in culture. It counts as cell-based. The note with it: Chikungunya virus, U2OS.
In series [4] the test system is human monocyte-derived macrophages.

Each structure is given as a SMILES string. pEC50: −log10 of the molar value.

As for `CCC(CC)COC(=O)[C@H](C)N[P@](=O)(OC[C@H]1O[C@@](C#N)(c2ccc3c(N)ncnn23)[C@H](O)[C@@H]1O)Oc1ccccc1` [GS-5734], the negative logarithm of the EC50 (pEC50) was less than 4.70 in series [1] (Human immunodeficiency virus 1, read-out: Antiviral activity EC50); 7.72 in series [2] (HEp-2, read-out: Antiviral activity EC50); less than 4.70 in series [3] (read-out: Antiviral activity EC50). Moreover, the EC90 was more than 20 µM in series [1] (Human immunodeficiency virus 1, read-out: Antiviral activity EC90); 51 nM in series [2] (HEp-2, read-out: Antiviral activity EC90); more than 20 µM in series [3] (read-out: Antiviral activity EC90). The “Intracellular NTP levels, fold higher than with Nuc” value in series [4] was “up to 30 fold”.
